Reference: US11433045B2, “Treatment of metabolic disorders in canine animals” (Boehringer Ingelheim Vetmedica GmbH, priority 2014, dated 2022)

Conditions: various environmental conditions and during production of a medicament

N#Cc1ccc([C@@H]2O[C@H](CO)[C@@H](O)[C@H](O)[C@H]2O)cc1Cc1ccc(C2CC2)cc1.O=C(O)[C@@H]1CCCN1
physical and chemical stability: high physical and chemical stability
